For one molecule, Kd results are on record in PMC8171087, “Pharmacological inhibition of noncanonical EED-EZH2 signaling overcomes chemoresistance in prostate cancer” (Theranostics, 2021).

SMILES strings stand for the structures. pKd: −log10 of the molar value.

The target of this assay is embryonic ectoderm development (EED) (Homo sapiens, UniProt O75530).
embryonic ectoderm development (EED), sequence (O75530 2-441): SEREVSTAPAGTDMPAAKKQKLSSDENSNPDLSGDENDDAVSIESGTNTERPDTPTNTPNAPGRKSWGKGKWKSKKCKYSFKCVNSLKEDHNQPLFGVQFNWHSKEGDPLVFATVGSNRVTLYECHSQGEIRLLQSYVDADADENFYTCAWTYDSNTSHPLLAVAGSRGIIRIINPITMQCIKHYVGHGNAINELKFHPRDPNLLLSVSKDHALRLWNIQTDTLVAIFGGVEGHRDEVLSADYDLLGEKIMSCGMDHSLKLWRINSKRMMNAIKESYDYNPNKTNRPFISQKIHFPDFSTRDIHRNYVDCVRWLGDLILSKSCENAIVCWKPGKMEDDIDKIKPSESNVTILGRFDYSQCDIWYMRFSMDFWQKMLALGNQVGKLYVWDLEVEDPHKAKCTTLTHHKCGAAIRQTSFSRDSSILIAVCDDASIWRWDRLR

With `CCOP(=O)(OCC)C(NC(=O)[C@H](Cc1ccc(-c2ccccc2)cc1)NC(=O)/C=C/c1ccc(-c2ccccc2)cc1)P(=O)(OCC)OCC` [LG1980], the negative logarithm of the Kd (pKd) is 5.57.
